Reference: patent US10112933B2, “Methods and compositions for treatment of fibrosis” (Baylor College of Medicine, priority 2013, dated 2018)

Columns and labels:
[1] = target: recombinant Stat3 (binding to EGFR Y1068 phosphododecapeptide) (Homo sapiens, UniProt P40763); assay: Stat3 SH2/pY-peptide SPR binding inhibition assay; details: Stat3 500 nM, immobilized EGFR Y1068 phosphododecapeptide; read-out: SPR IC50 (competition with pY-peptide for binding to Stat3)
Excerpt: Data shown are representative of 2 or more experiments. The equilibrium binding levels obtained in the absence or presence of compounds were normalized (response obtained in the presence of compound÷the response obtained in the absence of compound×100), plotted against the log concentration (nM) of the compounds (panel G). The experimental points fit to a competitive binding curve that uses a four-parameter logistic equation (see exemplary methods for details). These curves were used to calculate IC50 (Table 1).
Stat3 SH2/pY-peptide binding assay. Stat3 binding assays were performed at 25° C. with a BIAcore 3000 biosensor using 20 mM Tris buffer pH 8 containing 2 mM mercaptoethanol and 5% DMSO as the running buffer (Kim et al., 2005). Phosphorylated and control non-phosphorylated biotinylated EGFR derived dodecapeptides based on the sequence surrounding Y1068 (Shao et al., 2004) were immobilized on a streptavidin coated sensor chip (BIAcore inc., Picataway N.J.). The binding of Stat3 was conducted in 20 mM Tris buffer pH 8 containing 2 mM β-mercaptoethanol at a flow rate of 10 uL/min for 1-2 minute. Aliquots of Stat3 at 500 nM were premixed with compound to achieve a final concentration of 1-1,000 uM and incubated at 4° C. prior to being injected onto the sensor chip. The chip was regenerated by injecting 10 uL of 100 mM glycine at pH 1.5 after each sample injection. A control (Stat3 with DMSO but without compound) was run at the beginning and the end of each cycle (40 sample injections) to ensure that the integrity of the sensor chip was maintained throughout the cycle run. The average of the two controls was normalized to 100% and used to evaluate the effect of each compound on Stat3 binding. Responses were normalized by dividing the value at 2 min by the response obtained in the absence of compounds at 2 min and multiplying by 100. IC50 values were determined by plotting % maximum response as a function of log concentration of compound and fitting the experimental points to a competitive binding model using a four parameter logistic equation: R=Rhigh−(Rhigh−Rlow)/(1+conc/A1)^A2, where R=percent response at inhibitor concentration, Rhigh=percent response with no compound, Rlow=percent response at highest compound concentration, A2=fitting parameter (slope) and A1=IC50 (BIAevaluation Software version 4.1).
EXP IIA. Stat3/pY-peptide SPR binding inhibition assay. Stat3 pY-peptide binding assays is performed at 25° C. using a BIAcore 3000 biosensor as described (Xu et al., 2009). Briefly, phosphorylated and control nonphosphorylated biotinylated EGFR derived dodecapeptides based on the sequence surrounding Y1068 are immobilized on a streptavidin coated sensor chip (BIAcore Inc., Piscataway N.J.). […]

[2] = target: T1, Stat3:hSIE complex (Homo sapiens, UniProt P40763); assay: Electrophoretic mobility shift assay (Stat3 DNA binding, hSIE probe); assay type: biochemical; details: extracts of IL-6-stimulated HepG2 cells, compound 300 μM
T1 construct: endogenous in cells; host or cells: HepG2
T1 sequence (P40763 2-770 limits assumed, one chain of several): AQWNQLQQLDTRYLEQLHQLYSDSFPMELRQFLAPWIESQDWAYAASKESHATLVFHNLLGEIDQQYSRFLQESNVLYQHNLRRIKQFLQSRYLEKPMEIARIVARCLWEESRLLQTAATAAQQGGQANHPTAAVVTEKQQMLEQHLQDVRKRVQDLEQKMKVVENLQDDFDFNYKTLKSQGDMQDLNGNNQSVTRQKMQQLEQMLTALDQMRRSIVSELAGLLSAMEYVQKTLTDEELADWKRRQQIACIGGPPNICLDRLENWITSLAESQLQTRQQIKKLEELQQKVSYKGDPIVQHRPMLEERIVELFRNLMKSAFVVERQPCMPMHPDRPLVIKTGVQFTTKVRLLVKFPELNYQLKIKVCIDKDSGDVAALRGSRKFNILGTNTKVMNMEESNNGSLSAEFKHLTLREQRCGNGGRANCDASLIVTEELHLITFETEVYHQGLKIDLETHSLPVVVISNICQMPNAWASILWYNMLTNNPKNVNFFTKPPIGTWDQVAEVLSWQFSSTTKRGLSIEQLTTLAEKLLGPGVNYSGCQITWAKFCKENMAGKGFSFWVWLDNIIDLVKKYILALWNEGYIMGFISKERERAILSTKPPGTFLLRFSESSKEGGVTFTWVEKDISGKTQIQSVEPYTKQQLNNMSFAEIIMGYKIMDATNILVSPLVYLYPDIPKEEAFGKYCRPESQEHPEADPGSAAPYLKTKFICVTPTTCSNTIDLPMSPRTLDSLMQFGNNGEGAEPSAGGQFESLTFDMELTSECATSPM
Procedure: Electrophoretic mobility shift assays were performed using whole-cell extracts prepared from HepG2 cells without and with stimulation with IL-6 (30 ng/ml) for 30 min. Protein (20 μg) was incubated with radiolabeled duplex oligonucleotide (hSIE) and DMSO without or with the indicated compounds (300 uM) for 60 minutes at 37° C. then separated by PAGE. The gel was dried and autoradiographed; the portion of the gel corresponding to the Stat3-bound hSIE band is shown. Data shown are representative of 2 studies.
Electrophoretic Mobility Shift Assay (EMSA): EMSA was performed using the hSIE radiolabeled duplex oligonucleotide as a probe as described (Tweardy et al., 1995). Briefly, high salt extracts were prepared from HepG2 cells incubated without or with IL-6 (30 ng/ml) for 30 minutes. Protein concentration was determined by Bradford Assay and 20 ug of extract was incubated with compound (300 uM) for 60 minutes at 37° C. […] Gels were dried and autoradiographed.
Once in the nucleus, Stat3 dimers bind to specific DNA elements to activate and, in some instances, repress gene transcription. […] Compounds that bind to the phosphopeptide-binding site of Stat3 might be expected to do the same. […]

[3] = tested on: breast cancer cell lines (MDA-MB-468, MDA-MB-231, MBA-MD-435, MCF7, MDA-MB-453); assay: Breast cancer cell line apoptosis assay (nucleosome ELISA); assay type: cell-based, human
Procedure: Breast cancer cell line apoptosis assay. Human breast carcinoma cell lines MDA-MB-468, MDA-MB-231, MBA-MD-435 and MCF7 were kindly provided by Dr. Powel H. Brown (Breast Cancer Center, Baylor College of Medicine). Breast cancer cell line, MDA-MB-453 was kindly provided by Dr. Shou Jiang (Breast Cancer Center, Baylor College of Medicine). All cell lines were grown in DMEM medium supplemented with 10% fetal bovine serum (FBS), 25,000 units penicillin G, 25,000 ug streptomycin, and 131.4 mg L-Glutamine and cultured in the incubator under the condition of 95% air, 5% CO2 at 37° C. (Garcia et al., 2001). Cells were seeded at 2,500 cells/cm^2 into 12-well plates. At 80% confluency, cells were washed with PBS and supplemented with fresh medium containing compound or the topoisomerase I-inhibitor, camptothecin, at 0, 0.1, 03, 1, 3, 10, 30, 100, 300 μM. At 24 hours, treatment was terminated by removing the medium from each well. Cells were lysed with cell lysis buffer ([…] for 30 minutes at 25° C.). Cell lysate (200 μl) was centrifuged at 200×g for 10 minutes and […] of each supernatant was assayed for nucleosomes using the Cell Death Detection ELISA (Roche Applied Science) as described by the manufacturer. The percent maximum nucleosome level was calculated by dividing the nucleosome level by the maximum nucleosome level achieved in the assay and multiplying by 100. This value was plotted as a function of the log compound concentration and the best-fitting curve generated using 4-Parameter Logistic Model/Dose Response/XLfit 4.2, IDBS software.

recombinant Stat3 (binding to EGFR Y1068 phosphododecapeptide), sequence (P40763 whole entry, species assumed): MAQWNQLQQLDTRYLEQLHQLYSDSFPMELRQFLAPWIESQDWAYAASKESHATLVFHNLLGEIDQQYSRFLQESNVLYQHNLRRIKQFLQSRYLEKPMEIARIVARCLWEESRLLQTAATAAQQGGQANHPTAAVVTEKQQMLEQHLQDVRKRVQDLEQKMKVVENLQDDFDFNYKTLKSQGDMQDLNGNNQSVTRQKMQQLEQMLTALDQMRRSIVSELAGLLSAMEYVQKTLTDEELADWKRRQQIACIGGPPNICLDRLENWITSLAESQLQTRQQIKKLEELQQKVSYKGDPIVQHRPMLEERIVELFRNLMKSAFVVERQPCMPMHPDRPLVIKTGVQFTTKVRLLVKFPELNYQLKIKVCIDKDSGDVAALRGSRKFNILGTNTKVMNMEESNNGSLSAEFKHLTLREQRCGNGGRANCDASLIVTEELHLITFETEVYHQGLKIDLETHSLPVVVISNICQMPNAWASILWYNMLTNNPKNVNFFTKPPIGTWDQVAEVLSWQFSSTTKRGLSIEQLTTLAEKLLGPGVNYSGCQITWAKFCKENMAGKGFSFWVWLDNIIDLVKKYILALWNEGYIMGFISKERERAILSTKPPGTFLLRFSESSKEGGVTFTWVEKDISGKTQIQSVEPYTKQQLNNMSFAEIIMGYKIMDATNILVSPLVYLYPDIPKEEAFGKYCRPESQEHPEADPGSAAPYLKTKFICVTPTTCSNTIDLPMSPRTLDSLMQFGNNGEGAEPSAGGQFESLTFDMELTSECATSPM

`CCN1C(=O)C(=Cc2ccc(-c3cc(C(=O)O)ccc3Cl)o2)C(=O)N(CC)C1=S` [Cpd30-12, 4-chloro-3-{5-[(1,3-diethyl-4,6-dioxo-2-thioxotetrahydro-5(2H)-pyrimidinylidene)methyl]-2-furyl}benzoic acid] was tested, and the IC50 [1] was 114 µM.

With `O=C(O)c1ccc(C=CC(=O)c2ccc3c(c2)OCCO3)cc1` [Cpd3, 4-[3-(2,3-dihydro-1,4-benzodioxin-6-yl)-3-oxo-1-propen-1-yl]benzoic acid] the “amount of hSIE shifted (Stat3:hSIE band intensity)” value [2] was “reduced the amount of hSIE shifted by half or greater”, the “apoptosis of breast cancer cell lines with constitutive Stat3 activation” value [3] was “induced apoptosis preferentially” and the IC50 [1] was 447 µM.

With `CCOc1cc(C=C2C(=O)c3ccccc3C2=O)cc(Cl)c1OCc1cccc(C(=O)O)c1` [Cpd3-2, 3-({2-chloro-4-[(1,3-dioxo-1,3-dihydro-2H-inden-2-ylidene)methyl]-6-ethoxyphenoxy}methyl)benzoic acid] the IC50 [1] was 256 µM.
